Experimental data taken from patent US20120214822A1 (ASTRAZENECA AB, priority 2007, published 2012).

These compounds were tested against human active recombinant p38α-6His tagged (Homo sapiens, UniProt Q16539) (assay: P38 Alpha Enzyme Assay (AlphaScreen, biotinylated-ATF2 substrate)). Conditions: p38 alpha enzyme inhibition; means of replicate determinations; 4 h pre-incubation at 37° C.; SD of assay 0.2-0.3 log units.
Format: biochemical
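Note: 0.5 nM final p38α, reaction started with ATP and run 45 min at 37 °C, phospho-ATF2 read by antibody-based AlphaScreen, background wells quenched with EDTA before ATP.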

Chain of human active recombinant p38α-6His tagged (Q16539 whole entry): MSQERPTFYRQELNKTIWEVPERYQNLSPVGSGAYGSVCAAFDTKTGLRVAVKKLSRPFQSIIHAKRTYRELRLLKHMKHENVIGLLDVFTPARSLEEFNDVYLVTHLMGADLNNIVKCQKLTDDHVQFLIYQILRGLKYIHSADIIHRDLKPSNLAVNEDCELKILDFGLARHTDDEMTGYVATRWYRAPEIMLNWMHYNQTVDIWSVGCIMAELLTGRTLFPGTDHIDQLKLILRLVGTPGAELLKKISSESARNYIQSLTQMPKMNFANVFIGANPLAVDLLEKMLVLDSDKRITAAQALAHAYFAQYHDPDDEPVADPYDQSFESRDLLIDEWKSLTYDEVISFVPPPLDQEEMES

Structure (SMILES)	pIC50
Cc1ccc(C(=O)NC2CC2)cc1-n1ccnc(NC(C)(C)c2ccccc2OC[C@@H](CO)N(C)C)c1=O [Example 306, N-Cyclopropyl-3-[3-{[1-(2-{[(2R)-2-(dimethylamino)-3-hydroxypropyl]oxy}phenyl)-1-methylethyl]amino}-2-oxopyrazin-1(2H)-yl]-4-methylbenzamide]	10.1
Cc1ccc(C(=O)NC2CC2)cc1-n1ccnc(NC(C)(C)c2ccccc2OC2CCNCC2)c1=O [Example 219, N-Cyclopropyl-4-methyl-3-[3-[[1-methyl-1-[2-(4-piperidinyloxy)phenyl]ethyl]amino]-2-oxo-1(2H)-pyrazinyl]-benzamide]	9.3
Cc1ccc(C(=O)NC2CC2)cc1-n1ccnc(N[C@@H](c2ccccc2)[C@@H](C)CN2CCCC2(C)C)c1=O [Example 197, N-Cyclopropyl-3-[3-[[(1R,2S)-3-(2,2-dimethyl-1-pyrrolidinyl)-2-methyl-1-phenylpropyl]amino]-2-oxo-1(2H)-pyrazinyl]-4-methyl-benzamide]	9
CC(=O)N1CCN(C[C@H](C)[C@@H](Nc2nccn(-c3cc(C(=O)NC4CC4)ccc3C)c2=O)c2ccccc2)CC1 [Example 140, 3-[3-[[(1R,2S)-3-(4-Acetyl-1-piperazinyl)-2-methyl-1-phenylpropyl]amino]-2-oxo-1(2H)-pyrazinyl]-N-cyclopropyl-4-methyl-benzamide]	8.6
Cc1ccc(C(=O)NC2CC2)cc1-n1ccnc(NCc2cccc(C(F)(F)F)c2)c1=O [Example 93, N-Cyclopropyl-4-methyl-3-[2-oxo-3-[[[3-(trifluoromethyl)phenyl]methyl]amino]-1(2H)-pyrazinyl]-benzamide]	6.9
Cc1cccc(C2CCCN2c2nccn(-c3cc(C(=O)NC4CC4)ccc3C)c2=O)c1 (centres unmarked) [Example 96, N-Cyclopropyl-4-methyl-3-[3-[2-(3-methylphenyl)-1-pyrrolidinyl]-2-oxo-1(2H)-pyrazinyl]-benzamide]	8.5
Cc1ccc(C(=O)NC2CC2)cc1-n1ccnc(NCc2cccs2)c1=O [Example 31, N-Cyclopropyl-4-methyl-3-[2-oxo-3-[(2-thienylmethyl)amino]-1(2H)-pyrazinyl]-benzamide]	7
Cc1ccc(C(=O)NC2CC2)cc1-n1ccnc(NC(CCN2CCOCC2)c2ccccc2)c1=O (centres unmarked) [Example 77, N-Cyclopropyl-4-methyl-3-[3-[[3-(4-morpholinyl)-1-phenylpropyl]amino]-2-oxo-1(2H)-pyrazinyl]-benzamide]	7.5
Cc1ccc(C(=O)NC2CC2)cc1-n1ccnc(NC2(c3ccccc3OCCN3CCC[C@H]3C)CC2)c1=O [Example 247, N-Cyclopropyl-4-methyl-3-[3-[[1-[2-[2-[(2R)-2-methyl-1-pyrrolidinyl]ethoxy]phenyl]cyclopropyl]amino]-2-oxo-1(2H)-pyrazinyl]-benzamide]	9.8
Cc1ccc(C(=O)NC2CC2)cc1-n1ccnc(NCc2ccccc2CN2CCN(C)CC2)c1=O [Example 41, N-Cyclopropyl-4-methyl-3-[3-[[[2-[(4-methyl-1-piperazinyl)methyl]phenyl]methyl]amino]-2-oxo-1(2H)-pyrazinyl]-benzamide]	7
Cc1ccc(C(=O)NC2CC2)cc1-n1ccnc(N2CCN(CCN3CCCC3)C(c3ccccc3)C2)c1=O (centres unmarked) [Example 123, N-Cyclopropyl-4-methyl-3-[2-oxo-3-[3-phenyl-4-[2-(1-pyrrolidinyl)ethyl]-1-piperazinyl]-1(2H)-pyrazinyl]-benzamide]	7
Cc1c(F)cc(C(=O)NC2CC2)cc1-n1ccnc(NC(C)(C)c2ccccc2OCCNC[C@@H](C)O)c1=O [Example 256, N-Cyclopropyl-3-fluoro-5-[3-[[1-[2-[2-[[(2R)-2-hydroxypropyl]amino]ethoxy]phenyl]-1-methylethyl]amino]-2-oxo-1(2H)-pyrazinyl]-4-methyl-benzamide]	10.5
Cc1ccc(C(=O)NC2CC2)cc1-n1ccnc(NC[C@H](C)c2ccccc2)c1=O [Example 57, N-Cyclopropyl-4-methyl-3-[2-oxo-3-[[(2R)-2-phenylpropyl]amino]-1(2H)-pyrazinyl]-benzamide]	7.1
Cc1ccc(C(=O)NC2CC2)cc1-n1ccnc(NCCCc2ccccc2)c1=O [Example 36, N-Cyclopropyl-4-methyl-3-[2-oxo-3-[(3-phenylpropyl)amino]-1(2H)-pyrazinyl]-benzamide]	6.8
CCNCCOc1ccccc1C(CC)(CC)Nc1nccn(-c2cc(C(=O)NC3CC3)ccc2C)c1=O [Example 267, N-Cyclopropyl-3-[3-[[1-ethyl-1-[2-[2-(ethylamino)ethoxy]phenyl]propyl]amino]-2-oxo-1(2H)-pyrazinyl]-4-methyl-benzamide]	9.5
CNCCOc1ccccc1C(C)(C)Nc1nccn(-c2cc(C(=O)NCC(C)C)ccc2C)c1=O [Example 226, 4-Methyl-3-[3-[[1-methyl-1-[2-[2-(methylamino)ethoxy]phenyl]ethyl]amino]-2-oxo-1(2H)-pyrazinyl]-N-(2-methylpropyl)-benzamide]	6.6
CONC(=O)c1ccc(C)c(-n2ccnc(N3CCCC3)c2=O)c1 [Example 132, N-Methoxy-4-methyl-3-[2-oxo-3-(1-pyrrolidinyl)-1(2H)-pyrazinyl]-benzamide]	7.5
Cc1ccc(C(=O)NC2CC2)cc1-n1ccnc(N[C@@H](c2ccccc2)[C@@H](C)CN2CCC(F)(F)CC2)c1=O [Example 175, N-Cyclopropyl-3-[3-[[(1R,2S)-3-(4,4-difluoro-1-piperidinyl)-2-methyl-1-phenylpropyl]amino]-2-oxo-1(2H)-pyrazinyl]-4-methyl-benzamide]	9
Cc1ccc(C(=O)NC2CC2)cc1-n1ccnc(NCc2ccccc2Cl)c1=O [Example 129, 3-[3-[[(2-Chlorophenyl)methyl]amino]-2-oxo-1(2H)-pyrazinyl]-N-cyclopropyl-4-methyl-benzamide]	7.7
Cc1ccc(C(=O)NC2CC2)cc1-n1ccnc(NC2(c3ccccc3OCCNCC(F)(F)F)CC2)c1=O [Example 240, N-Cyclopropyl-4-methyl-3-[2-oxo-3-[[1-[2-[2-[(2,2,2-trifluoroethyl)amino]ethoxy]phenyl]cyclopropyl]amino]-1(2H)-pyrazinyl]-benzamide]	8.8
CNCCOc1ccccc1C(C)(C)Nc1nccn(-c2cc(C(=O)NC3CC3)ccc2Cl)c1=O [Example 330, 4-Chloro-N-cyclopropyl-3-[3-[(1-methyl-1-{2-[2-(methylamino)ethoxy]phenyl}ethyl)amino]-2-oxopyrazin-1(2H)-yl]benzamide]	9.4
Cc1ccc(C(=O)NC2CC2)cc1-n1ccnc(NC2(c3ccccc3OCCN3CCC(F)(F)C3)CC2)c1=O [Example 244, N-Cyclopropyl-3-[3-[[1-[2-[2-(3,3-difluoro-1-pyrrolidinyl)ethoxy]phenyl]cyclopropyl]amino]-2-oxo-1(2H)-pyrazinyl]-4-methyl-benzamide]	9.2
Cc1c(F)cc(C(=O)NC2CC2)cc1-n1ccnc(NC(C)(C)c2ccccc2OCCNCCC(=O)O)c1=O [Example 313, N-(2-{2-[1-({4-[5-(Cyclopropylcarbamoyl)-3-fluoro-2-methylphenyl]-3-oxo-3,4-dihydropyrazin-2-yl}amino)-1-methylethyl]phenoxy}ethyl)-beta-alanine]	9.9
